Measured values taken from patent US20240425491A1, “HETEROARYL COMPOUNDS USEFUL IN THE TREATMENT OF COGNITIVE DISORDERS” (University College Cardiff Consultants Limited, priority 2021, published 2024).
Counter-ions that a name gives are not always drawn.

Legend:
[1] = target: T1, human α5β3γ2 GABAARs in mouse L(tk−) cells (Homo sapiens, UniProt P18507+P31644); test: In vitro electrophysiological recording assay (α5-GABAAR relative efficacy), QPatch; assay type: cell-based; settings: GABA EC10-20
T1 construct: expressed in transfected cells; host or cells: mouse L(tk−) cells, dexamethasone-inducible vector pMSGneo
Procedure, shortened: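 Whole-cell QPatch recordings at 20-22° C, −65 mV holding, in dexamethasone-induced (1 μM, 24 h) L(tk−) cells. Compound pre-applied ≥1 min, then co-applied with GABA EC10-20; percentage change in leak-corrected peak current, taken at ≥100× Ki, normalised to DMCM efficacy; 0.1% DMSO final.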

[2] = target: T2, human recombinant GABAAR containing α5β3γ2 subunits (benzodiazepine site) (Homo sapiens, UniProt P18507+P31644); test: In vitro radioligand binding assay (α5-GABAAR Ki); settings: inhibition of [3H]Ro15-1788 binding, membranes of L(tk−) cells expressing human α5β3γ2; read-out: α5-GABAAR Ki
T2 construct: expressed in transfected cells; host or cells: mouse L(tk−) cells, dexamethasone-inducible vector pMSGneo
Procedure, shortened: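 Membranes from mouse L(tk^−) cells stably expressing human α5β3γ2 GABAAR incubated 1 h at 4° C with 4 nM [^3H]Ro15-1788 and test compound; nonspecific binding with 1 μM TP003. Filter-bound radioactivity counted; Ki from IC50 by Cheng-Prusoff using measured Kd.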

T2 sequence (P31644 32-462): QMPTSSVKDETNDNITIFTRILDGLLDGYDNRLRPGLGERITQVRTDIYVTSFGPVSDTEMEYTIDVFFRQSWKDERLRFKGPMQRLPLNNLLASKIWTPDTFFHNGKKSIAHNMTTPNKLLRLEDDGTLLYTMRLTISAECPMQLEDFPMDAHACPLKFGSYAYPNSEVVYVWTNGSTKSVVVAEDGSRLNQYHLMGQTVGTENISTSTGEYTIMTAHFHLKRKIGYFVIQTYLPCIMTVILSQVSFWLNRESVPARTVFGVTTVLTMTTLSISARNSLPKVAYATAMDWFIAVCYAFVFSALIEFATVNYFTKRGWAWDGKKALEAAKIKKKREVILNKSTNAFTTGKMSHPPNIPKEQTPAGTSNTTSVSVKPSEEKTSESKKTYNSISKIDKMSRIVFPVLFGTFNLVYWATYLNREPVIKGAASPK
T2 sequence (P28472 26-473 partner): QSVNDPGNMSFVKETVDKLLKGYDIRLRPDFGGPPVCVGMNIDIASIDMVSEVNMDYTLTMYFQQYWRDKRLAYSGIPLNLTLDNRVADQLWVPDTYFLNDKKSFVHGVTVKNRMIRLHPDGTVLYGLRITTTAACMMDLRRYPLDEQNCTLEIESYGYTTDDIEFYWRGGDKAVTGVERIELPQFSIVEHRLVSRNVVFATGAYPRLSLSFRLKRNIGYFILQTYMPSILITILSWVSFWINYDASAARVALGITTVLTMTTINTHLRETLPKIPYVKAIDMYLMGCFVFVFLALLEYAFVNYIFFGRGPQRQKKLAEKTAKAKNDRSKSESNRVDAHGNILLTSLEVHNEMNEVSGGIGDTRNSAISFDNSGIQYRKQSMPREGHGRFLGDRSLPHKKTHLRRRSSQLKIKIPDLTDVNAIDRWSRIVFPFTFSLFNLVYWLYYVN
T2 sequence (P18507 40-475): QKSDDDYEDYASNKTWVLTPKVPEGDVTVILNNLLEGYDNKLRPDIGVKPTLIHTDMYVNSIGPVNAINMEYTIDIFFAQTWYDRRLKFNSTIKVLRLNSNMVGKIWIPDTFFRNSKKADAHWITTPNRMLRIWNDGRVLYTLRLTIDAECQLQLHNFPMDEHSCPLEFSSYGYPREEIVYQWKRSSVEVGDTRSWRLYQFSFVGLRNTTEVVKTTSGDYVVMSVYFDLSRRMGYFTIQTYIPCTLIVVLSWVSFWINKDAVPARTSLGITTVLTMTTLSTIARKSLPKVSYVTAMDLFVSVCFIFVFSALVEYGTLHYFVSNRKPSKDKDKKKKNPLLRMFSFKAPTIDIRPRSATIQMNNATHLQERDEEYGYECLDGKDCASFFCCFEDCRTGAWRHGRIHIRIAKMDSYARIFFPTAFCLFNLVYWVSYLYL
T1 sequence (P31644 32-462): as the sequence (P31644 32-462) above
T1 sequence (P28472 26-473 partner): as the sequence (P28472 26-473 partner) above
T1 sequence (P18507 40-475): as the sequence (P18507 40-475) above

| α5-GABAAR Relative Efficacy (to DMCM), Qpatch ([1]; Conc 0.3 μM) | Ki [2] [nM] | α5-GABAAR Relative Efficacy (to DMCM), Qpatch ([1]; Conc 1 μM) | α5-GABAAR Relative Efficacy (to DMCM), Qpatch ([1]; Conc 3 μM) | Compound | α5-GABAAR Relative Efficacy (to DMCM), Qpatch ([1]; Conc 0.1 μM) |
| --- | --- | --- | --- | --- | --- |
| −0.87 | 1.8 |  |  | COc1ncc(-c2ccc(NC(=O)c3c(-c4ccccc4)noc3C)c(OC)n2)cn1 [Example 41, N-(2-Methoxy-6-(2-methoxypyrimidin-5-yl)pyridin-3-yl)-5-methyl-3-phenyl-isoxazole-4-carboxamide] |  |
| −0.36 | 2.1 |  |  | COc1nc(-c2ncc[nH]2)ccc1NC(=O)c1c(-c2ccccc2)noc1C [Example 121, N-[6-(1H-Imidazol-2-yl)-2-methoxy-3-pyridyl]-5-methyl-3-phenyl-isoxazole-4-carboxamide] |  |
|  | 4.1 | −0.75 |  | COc1nc(-c2c[nH]c(=O)c(F)c2)cnc1NC(=O)c1c(-c2ccccc2)noc1C [Example 133, N-[5-(5-Fluoro-6-oxo-1H-pyridin-3-yl)-3-methoxy-pyrazin-2-yl]-5-methyl-3-phenyl-isoxazole-4-carboxamide] |  |
|  | 13.8 |  | −0.63 | COc1nc(-c2ccc3c(c2)COC(=O)N3)ccc1NC(=O)c1c(-c2ccccc2)noc1C [Example 119, N-(2-Methoxy-6-(2-oxo-1,4-dihydro-2H-benzo[d] [1,3]oxazin-6-yl)pyridin-3-yl)-5-methyl-3-phenylisoxazole-4-carboxamide] |  |
|  | 16.8 |  | −0.53 | COc1nc(-c2cn(CCN)cn2)ccc1NC(=O)c1c(-c2ccccc2)noc1C [Example 200, N-(6-(1-(2-Aminoethyl)-1H-imidazol-4-yl)-2-methoxypyridin-3-yl)-5-methyl-3-phenylisoxazole-4-carboxamide dihydrochloride] |  |
|  | 23.5 |  | −0.46 | COc1nc(-c2ncn3c2CNCC3)ccc1NC(=O)c1c(-c2ccccc2)noc1C [Example 187, N-(2-Methoxy-6-(5,6,7,8-tetrahydroimidazo[1,5-a]pyrazin-1-yl)pyridin-3-yl)-5-methyl-3-phenylisoxazole-4-carboxamide dihydrochloride] |  |
| −0.60 | 2.8 |  |  | COc1nc(-c2ccncc2)ccc1NC(=O)c1c(-c2ccccc2)noc1C [Example 42, N-(6-Methoxy-[2,4′-bipyridin]-5-yl)-5-methyl-3-phenylisoxazole-4-carboxamide] |  |
|  | 10.8 |  | −0.81 | COc1nc(-c2cnc(C3CC3)nc2)ccc1NC(=O)c1c(-c2ccccc2)noc1C [Example 17, N-[6-(2-Cyclopropylpyrimidin-5-yl)-2-methoxy-3-pyridyl]-5-methyl-3-phenyl-isoxazole-4-carboxamide] |  |
|  | 21.7 |  | −0.50 | COc1nc(-c2cncs2)ccc1NC(=O)c1c(-c2ccccc2)noc1C [Example 94, N-(2-Methoxy-6-(thiazol-5-yl)pyridin-3-yl)-5-methyl-3-phenylisoxazole-4-carboxamide] |  |
|  | 25.3 |  | −0.89 | COc1nc(-n2ccnc2)ccc1NC(=O)c1c(-c2ccccc2)nnn1C [Example 154, N-(6-(1H-Imidazol-1-yl)-2-methoxypyridin-3-yl)-1-methyl-4-phenyl-1H-1,2,3-triazole-5-carboxamide] |  |
| −0.72 | 3 |  |  | COc1nc(-c2cnc3cnn(C)c3c2)ccc1NC(=O)c1c(-c2ccccc2)noc1C [Example 100, N-(2-Methoxy-6-(1-methyl-1H-pyrazolo[4,3-b]pyridin-6-yl)pyridin-3-yl)-5-methyl-3-phenylisoxazole-4-carboxamide] |  |
|  | 32.8 | −0.69 |  | COc1nc(-n2ccnc2)ncc1NC(=O)c1c(-c2ccccc2)noc1C [Example 3, N-(2-Imidazol-1-yl-4-methoxy-pyrimidin-5-yl)-5-methyl-3-phenyl-isoxazole-4-carboxamide] |  |
|  | 27.2 |  | −0.65 | COc1nc(-c2c[nH]c(=O)c(F)c2)ccc1NC(=O)c1c(C)nnn1-c1ccccc1 [Example 164, N-(5′-Fluoro-6-methoxy-6′-oxo-1′,6′-dihydro-[2,3′-bipyridin]-5-yl)-4-methyl-1-phenyl-1H-1,2,3-triazole-5-carboxamide] |  |
|  | 0.7 |  |  | COC(=O)c1ncc(-c2ccc(NC(=O)c3c(-c4ccccc4)noc3C)c(OC)n2)cn1 [Example 70, Methyl 5-[6-methoxy-5-[(5-methyl-3-phenyl-isoxazole-4-carbonyl)amino]-2-pyridyl]pyrimidine-2-carboxylate] | −0.89 |
|  | 3.2 | −0.21 |  | COc1cc(-c2cncnc2)cnc1NC(=O)c1c(-c2ccccc2)noc1C [Example 9, N-(3-Methoxy-5-pyrimidin-5-yl-2-pyridyl)-5-methyl-3-phenyl-isoxazole-4-carboxamide] |  |
|  | 17.5 |  | −0.69 | COc1nc(-c2ncn3c2CN(C)CC3)ccc1NC(=O)c1c(-c2ccccc2)noc1C [Example 186, N-(2-Methoxy-6-(7-methyl-5,6,7,8-tetrahydroimidazol[1,5-a]pyrazin-1-yl)pyridin-3-yl)-5-methyl-3-phenylisoxazole-4-carboxamide] |  |
|  | 9.6 | −0.74 |  | COc1nc(-c2cccc3nc(N)nn23)ccc1NC(=O)c1c(-c2ccccc2)noc1C [Example 50, N-[6-(2-Amino-[1,2,4]triazolo[1,5-a]pyridin-5-yl)-2-methoxy-3-pyridyl]-5-methyl-3-phenyl-isoxazole-4-carboxamide] |  |
|  | 3.3 | −0.60 |  | COc1nc(-c2cnc3ncccn23)ccc1NC(=O)c1c(-c2ccccc2)noc1C [Example 136, N-(6-(Imidazo[1,2-a]pyrimidin-3-yl)-2-methoxypyridin-3-yl)-5-methyl-3-phenylisoxazole-4-carboxamide] |  |
|  | 5.2 | −0.61 |  | COc1nc(-c2ccc(=O)n(C)c2)ccc1NC(=O)c1c(-c2ccccc2)noc1C [Example 28, N-[2-Methoxy-6-(1-methyl-6-oxo-3-pyridyl)-3-pyridyl]-5-methyl-3-phenyl-isoxazole-4-carboxamide] |  |
|  | 11.4 |  | −0.40 | COc1nc(-c2cnc3c(c2)OCO3)ccc1NC(=O)c1c(-c2ccccc2)noc1C [Example 106, N-(6-([1,3] Dioxolo[4,5-b]pyridin-6-yl)-2-methoxypyridin-3-yl)-5-methyl-3-phenylisoxazole-4-carboxamide] |  |
|  | 45.1 |  | −0.89 | COc1nc(-n2ccnc2)ccc1NC(=O)c1c(C)nnn1-c1ccccc1 [Example 151, N-(6-(1H-Imidazol-1-yl)-2-methoxypyridin-3-yl)-4-methyl-1-phenyl-1H-1,2,3-triazole-5-carboxamide] |  |
| −0.55 | 2.3 |  |  | COc1nc(-c2cnc(C(=O)N(C)C)nc2)ccc1NC(=O)c1c(-c2ccccc2)noc1C [Example 130, N-[6-[2-(Dimethylcarbamoyl)pyrimidin-5-yl]-2-methoxy-3-pyridyl]-5-methyl-3-phenyl-isoxazole-4-carboxamide] |  |
|  | 10.1 |  | −0.45 | COc1nc(-c2ccc3nnn(C)c3c2)ccc1NC(=O)c1c(-c2ccccc2)noc1C [Example 91, N-(2-Methoxy-6-(1-methyl-1H-benzo[d] [1,2,3]triazol-6-yl)pyridin-3-yl)-5-methyl-3-phenylisoxazole-4-carboxamide] |  |
| −0.56 | 2.8 |  |  | COc1nc(-c2cccnc2)ccc1NC(=O)c1c(-c2ccccc2)noc1C [Example 37, N-(6-Methoxy-[2,3′-bipyridin]-5-yl)-5-methyl-3-phenylisoxazole-4-carboxamide] |  |

| Compound | α5-GABAAR Relative Efficacy (to DMCM), Qpatch ([1]; Conc 0.3 μM) | Ki [2] [nM] | α5-GABAAR Relative Efficacy (to DMCM), Qpatch ([1]; Conc 1 μM) | α5-GABAAR Relative Efficacy (to DMCM), Qpatch ([1]; Conc 3 μM) | α5-GABAAR Relative Efficacy (to DMCM), Qpatch ([1]; Conc 0.1 μM) |
| --- | --- | --- | --- | --- | --- |
| COc1nc(-c2cnc(NCCN)nc2)ccc1NC(=O)c1c(-c2ccccc2)noc1C.Cl [Example 171, N-[6-[2-(2-Aminoethylamino)pyrimidin-5-yl]-2-methoxy-3-pyridyl]-5-methyl-3-phenyl-isoxazole-4-carboxamide hydrochloride] |  | 3.8 |  |  | −0.75 |
| CNCCNc1ncc(-c2ccc(NC(=O)c3c(-c4ccccc4)noc3C)c(OC)n2)cn1.Cl [Example 170, N-[2-Methoxy-6-[2-[2-(methylamino)ethylamino]pyrimidin-5-yl]-3-pyridyl]-5-methyl-3-phenyl-isoxazole-4-carboxamide hydrochloride] |  | 0.5 |  |  | −0.84 |
| CNCc1ncc(-c2cnc(NC(=O)c3c(-c4ccccc4)noc3C)c(OC)n2)cn1.Cl [Example 169, N-[3-Methoxy-5-[2-(methylaminomethyl)pyrimidin-5-yl]pyrazin-2-yl]-5-methyl-3-phenyl-isoxazole-4-carboxamide hydrochloride] |  | 5.2 | −0.88 |  |  |
| CNCc1ccc(-c2ccc(NC(=O)c3c(-c4ccccc4)noc3C)c(OC)n2)cc1.Cl [Example 183, N-[2-Methoxy-6-[4-(methylaminomethyl)phenyl]-3-pyridyl]-5-methyl-3-phenyl-isoxazole-4-carboxamide hydrochloride] |  | 14.2 |  | −0.68 |  |
